# Source: patent publication EP0431323A1, “Antitumor antibiotic BU-3983T” (priority 1989, dated 1991)
# Like-named read-outs stand apart in the source and are kept apart here.
# Experiments:
# [1] = test system: L1210 leukemia; assay: In vivo antitumor activity in tumor-bearing mice, L1210 leukemia (ip); conditions: for Body weight change on day 4 / MST (Median survival time) / T/C: L1210 leukemia ip, CDF₁ mice, Q1D x 1; for T/C: significant if T/C ≧ 125%
# Protocol: (§1) In vivo antitumor activity of BU-3983T was examined using tumor-bearing mice. Male BDF₁ mice were intraperitoneally inoculated with 0.5 ml of 10% melanotic melanoma B16 brei, and female CDF₁ mice were intraperitoneally inoculated with 0.4 ml of diluted ascitic fluid containing 10⁶ lymphocytic leukemia P388 cells or 10⁵ lymphoid leukemia L1210 cells. Mitomycin C was used as a reference compound. Test compounds were intraperitoneally administered to the mice by the following treatment schedules: once a day on day 1 only (Q1D x 1), on days 1, 5 and 9 (Q4D x 3) or on days 1 to 9 (Q1D x 9). […]
# [2] = test system: P388 leukemia; assay: In vivo antitumor activity in tumor-bearing mice, P388 leukemia (ip); conditions: for Body weight change on day 4 / MST (Median survival time) / T/C: P388 leukemia ip, CDF₁ mice, Q1D x 1; for T/C: significant if T/C ≧ 125%
# Protocol: as §1
# [3] = test system: B16 melanoma; assay: In vivo antitumor activity in tumor-bearing mice, B16 melanoma (ip); conditions: for Body weight change on day 5 / MST (Median survival time) / T/C: B16 melanoma ip, BDF₁ mice; for T/C: significant if T/C ≧ 125%
# Protocol: as §1
# [4] = test system: DNA synthesis in B16-F10 melanoma cells; assay: Inhibition of macromolecule synthesis: DNA (3H-thymidine incorporation); type: cell-based, murine; conditions: 4.5 hours + 30 minutes label
# Protocol: (§3) B16-F10 cells (10⁵ cells/ml) were incubated with test materials at 37°C for 4.5 hours (for DNA synthesis) or 4 hours (for RNA and protein syntheses). Labelled precursor, ³H-thymidine, ¹⁴C-uridine or ³H-leucine was added to the culture and further incubated for 30 minutes (for DNA) or 60 minutes (for RNA and protein). After washing with chilled 5% trichloroacetic acid solution, the radioactivity incorporated into the acid-insoluble fraction of the tumor cells was determined by a liquid scintillation counter. Actinomycin D was used as a reference compound.
# [5] = test system: Moser (human colorectal carcinoma); conditions: Moser cells, 72 hours
# Protocol: (§2) BU-3983T was tested for in vitro cytotoxicity against murine and human cell lines and for in vivo antitumor activity in mice. B16-F10 (murine melanoma) and Moser (human colorectal carcinoma) cells were grown to the logarithmic phase in the enriched Eagle minimum essential medium supplemented with fetal calf serum (FCS, 10%) and kanamycin (60 µg/ml), and HCT-116 (human colon carcinoma) were in McCoy's 5A medium supplemented with FCS (10%), penicillin (100 U/ml) and streptomycin (100 µg/ml). B16-F10, Moser and HCT-116 cells were harvested and implanted into wells of a 96-well microtiter plate at the inoculum sizes of 1.5 x 10⁴, 3 x 10⁴ and 3 x 10⁴ cells/ml, respectively. They were incubated with test materials at 37°C in humidified atmosphere of 5% CO₂ and 95% air for 72 hours. The cytotoxicity against tumor cells was determined colorimetrically at 540 nm after staining viable cells.
# [6] = test system: B16-F10 (murine melanoma)
# Protocol: as §2
# [7] = test system: HCT-116 (human colon carcinoma); conditions: HCT-116 cells, 72 hours
# Protocol: as §2
# [8] = Antimicrobial activity (no method given)
# [9] = test system: Protein synthesis in B16-F10 melanoma cells; assay: Inhibition of macromolecule synthesis: protein (3H-leucine incorporation); type: cell-based, murine
# Protocol: as §3
# [10] = test system: RNA synthesis in B16-F10 melanoma cells; assay: Inhibition of macromolecule synthesis: RNA (14C-uridine incorporation); type: cell-based, murine; conditions: 4 hours + 60 minutes label
# Protocol: as §3
compound,measurement,setting,value
CCC(C)CC(C)CC(C)/C=C(\C)C1OC(O)(C(C)(O)C(=O)NC2C(=O)N3NCCCC3C(=O)N(O)CC(=O)N(C)CC(=O)NCC(=O)N(C)CC(=O)OC2C(C)C)CCC1OC (centres unmarked) [BU-3983T],Body weight change on day 4,[1]; 0.25 mg/kg/day ip,+0.8 g
same,MST (Median survival time),[1]; 0.25 mg/kg/day ip,8.0 days
same,T/C,[1]; 0.25 mg/kg/day ip,100%
same,Body weight change on day 4,[1]; 0.5 mg/kg/day ip,-0.5 g
same,MST (Median survival time),[1]; 0.5 mg/kg/day ip,8.0 days
same,T/C,[1]; 0.5 mg/kg/day ip,100%
same,Body weight change on day 4,[1]; 1 mg/kg/day ip,-2.0 g
same,MST (Median survival time),[1]; 1 mg/kg/day ip,8.0 days
same,T/C,[1]; 1 mg/kg/day ip,100%
same,Body weight change on day 4,[1]; 2 mg/kg/day ip,-2.0 g
same,MST (Median survival time),[1]; 2 mg/kg/day ip,9.0 days
same,T/C,[1]; 2 mg/kg/day ip,113%
same,Body weight change on day 4,[1]; 4 mg/kg/day ip,-2.5 g
same,MST (Median survival time),[1]; 4 mg/kg/day ip,9.5 days
same,T/C,[1]; 4 mg/kg/day ip,119%
same,MST (Median survival time),[1]; 8 mg/kg/day ip,Tox
same,T/C,[1]; 8 mg/kg/day ip,Tox
same,prolongation of lifespan,"[1]; L1210 leukemia system, ip",no significant prolongation of lifespan
same,Body weight change on day 4,[2]; 0.25 mg/kg/day ip,+0.3 g
same,MST (Median survival time),[2]; 0.25 mg/kg/day ip,11.0 days
same,T/C,[2]; 0.25 mg/kg/day ip,110%
same,Body weight change on day 4,[2]; 0.5 mg/kg/day ip,-0.5 g
same,MST (Median survival time),[2]; 0.5 mg/kg/day ip,10.0 days
same,T/C,[2]; 0.5 mg/kg/day ip,100%
same,Body weight change on day 4,[2]; 1 mg/kg/day ip,-1.5 g
same,MST (Median survival time),[2]; 1 mg/kg/day ip,10.0 days
same,T/C,[2]; 1 mg/kg/day ip,100%
same,Body weight change on day 4,[2]; 2 mg/kg/day ip,-2.0 g
same,MST (Median survival time),[2]; 2 mg/kg/day ip,10.0 days
same,T/C,[2]; 2 mg/kg/day ip,100%
same,Body weight change on day 4,[2]; 4 mg/kg/day ip,-2.3 g
same,MST (Median survival time),[2]; 4 mg/kg/day ip,11.0 days
same,T/C,[2]; 4 mg/kg/day ip,110%
same,Body weight change on day 4,[2]; 8 mg/kg/day ip,-2.5 g
same,MST (Median survival time),[2]; 8 mg/kg/day ip,11.5 days
same,T/C,[2]; 8 mg/kg/day ip,115%
same,prolongation of lifespan,"[2]; P388 leukemia system, ip",no significant prolongation of lifespan
same,Body weight change on day 5,"[3]; 0.031 mg/kg/day ip, Q1D x 9",+1.0 g
same,MST (Median survival time),"[3]; 0.031 mg/kg/day ip, Q1D x 9",16.0 days
same,T/C,"[3]; 0.031 mg/kg/day ip, Q1D x 9",110%
same,Body weight change on day 5,"[3]; 0.063 mg/kg/day ip, Q1D x 9",+1.0 g
same,MST (Median survival time),"[3]; 0.063 mg/kg/day ip, Q1D x 9",17.5 days
same,T/C,"[3]; 0.063 mg/kg/day ip, Q1D x 9",121%
same,Body weight change on day 5,"[3]; 0.063 mg/kg/day ip, Q4D x 3",+0.5 g
same,MST (Median survival time),"[3]; 0.063 mg/kg/day ip, Q4D x 3",14.0 days
same,T/C,"[3]; 0.063 mg/kg/day ip, Q4D x 3",108%
same,Body weight change on day 5,"[3]; 0.13 mg/kg/day ip, Q1D x 1",+0.5 g
same,MST (Median survival time),"[3]; 0.13 mg/kg/day ip, Q1D x 1",14.0 days
same,T/C,"[3]; 0.13 mg/kg/day ip, Q1D x 1",108%
same,Body weight change on day 5,"[3]; 0.13 mg/kg/day ip, Q1D x 9",-0.3 g
same,MST (Median survival time),"[3]; 0.13 mg/kg/day ip, Q1D x 9",19.0 days
same,T/C,"[3]; 0.13 mg/kg/day ip, Q1D x 9",131*² %
same,Body weight change on day 5,"[3]; 0.13 mg/kg/day ip, Q4D x 3",+0.0 g
same,MST (Median survival time),"[3]; 0.13 mg/kg/day ip, Q4D x 3",15.0 days
same,T/C,"[3]; 0.13 mg/kg/day ip, Q4D x 3",115%
same,Body weight change on day 5,"[3]; 0.25 mg/kg/day ip, Q1D x 1",0.0 g
same,MST (Median survival time),"[3]; 0.25 mg/kg/day ip, Q1D x 1",17.0 days
same,T/C,"[3]; 0.25 mg/kg/day ip, Q1D x 1",131*² %
same,Body weight change on day 5,"[3]; 0.25 mg/kg/day ip, Q1D x 9",-1.0 g
same,MST (Median survival time),"[3]; 0.25 mg/kg/day ip, Q1D x 9",19.5 days
same,T/C,"[3]; 0.25 mg/kg/day ip, Q1D x 9",138*² %
same,Body weight change on day 5,"[3]; 0.25 mg/kg/day ip, Q4D x 3",0.0 g
same,MST (Median survival time),"[3]; 0.25 mg/kg/day ip, Q4D x 3",16.0 days
same,T/C,"[3]; 0.25 mg/kg/day ip, Q4D x 3",123%
same,Body weight change on day 5,"[3]; 0.5 mg/kg/day ip, Q1D x 1",-1.0 g
same,MST (Median survival time),"[3]; 0.5 mg/kg/day ip, Q1D x 1",17.0 days
same,T/C,"[3]; 0.5 mg/kg/day ip, Q1D x 1",131*² %
same,Body weight change on day 5,"[3]; 0.5 mg/kg/day ip, Q1D x 9",-4.0 g
same,MST (Median survival time),"[3]; 0.5 mg/kg/day ip, Q1D x 9",20.0 days
same,T/C,"[3]; 0.5 mg/kg/day ip, Q1D x 9",148*² %
same,Body weight change on day 5,"[3]; 0.5 mg/kg/day ip, Q4D x 3",-0.5 g
same,MST (Median survival time),"[3]; 0.5 mg/kg/day ip, Q4D x 3",19.0 days
same,T/C,"[3]; 0.5 mg/kg/day ip, Q4D x 3",146*² %
same,Body weight change on day 5,"[3]; 1 mg/kg/day ip, Q1D x 1",-4.0 g
same,MST (Median survival time),"[3]; 1 mg/kg/day ip, Q1D x 1",16.5 days
same,T/C,"[3]; 1 mg/kg/day ip, Q1D x 1",127*² %
same,MST (Median survival time),"[3]; 1 mg/kg/day ip, Q1D x 9",Tox
same,T/C,"[3]; 1 mg/kg/day ip, Q1D x 9",Tox
same,Body weight change on day 5,"[3]; 1 mg/kg/day ip, Q4D x 3",-2.3 g
same,MST (Median survival time),"[3]; 1 mg/kg/day ip, Q4D x 3",17.5 days
same,T/C,"[3]; 1 mg/kg/day ip, Q4D x 3",135*² %
same,Body weight change on day 5,"[3]; 2 mg/kg/day ip, Q1D x 1",-4.8 g
same,MST (Median survival time),"[3]; 2 mg/kg/day ip, Q1D x 1",21.0 days
same,T/C,"[3]; 2 mg/kg/day ip, Q1D x 1",162*² %
same,Body weight change on day 5,"[3]; 2 mg/kg/day ip, Q4D x 3",-4.0 g
same,MST (Median survival time),"[3]; 2 mg/kg/day ip, Q4D x 3",18.0 days
same,T/C,"[3]; 2 mg/kg/day ip, Q4D x 3",138*² %
same,Body weight change on day 5,"[3]; 4 mg/kg/day ip, Q1D x 1",-5.3 g
same,MST (Median survival time),"[3]; 4 mg/kg/day ip, Q1D x 1",19.0 days
same,T/C,"[3]; 4 mg/kg/day ip, Q1D x 1",146*² %
same,Body weight change on day 5,"[3]; 8 mg/kg/day ip, Q1D x 1",-5.3 g
same,MST (Median survival time),"[3]; 8 mg/kg/day ip, Q1D x 1",17.5 days
same,T/C,"[3]; 8 mg/kg/day ip, Q1D x 1",135*² %
same,maximum T/C,"[3]; B16 melanoma, by various treatment schedules (Q1D x 1, Q4D x 3, Q1D x 9), ip",146-162%
same,IC₅₀ DNA,[4],0.26 µg/mL
same,IC₅₀,[5],0.4 µg/mL
same,IC₅₀,"[6]; B16-F10 cells, 72 hours",0.004 µg/mL
same,times more potent against B16-F10 than against HCT-116,"[6]; ratio of IC₅₀ values, B16-F10 vs HCT-116",10 times
same,times more potent against B16-F10 than against Moser,"[6]; ratio of IC₅₀ values, B16-F10 vs Moser",100 times
same,IC₅₀,[7],0.04 µg/mL
same,solubility,"in acetonitrile, methanol, chloroform, dimethyl sulfoxide and dimethylformamide",readily soluble
same,solubility,"in n-butanol, ethanol and ethyl acetate",slightly soluble
same,solubility,in n-hexane and water,practically insoluble
same,antimicrobial activity,[8],weak
same,IC₅₀ Protein,[9]; 4 hours + 60 minutes label,>1.0 µg/mL
same,inhibition of protein synthesis,[9]; at 1.0 µg/ml,only weak inhibition
same,IC₅₀ RNA,[10],0.29 µg/mL
